The values that follow are results of earlier work, collected in publication PMC12356143 (RSC Medicinal Chemistry, 2025).

The test system of series [1] is M^pro WT. The settings on record: literature value; cited from earlier work.
Series [2] concerns FIPV M^pro. The settings on record: literature value; cited from earlier work.

Turning to 2-Abz-SVTLQ↓SGY^(NO2)R-OH, in series [1], the “K M” value is 80 × 10^−6 (lit. [10]) M and the k cat is 2.25 ± 0.1 (lit. [10]) s^−1. For `CC(C)CC(NC(=O)OCc1ccccc1)C(=O)NC(CC1CCNC1=O)C(O)S(=O)(=O)O` (stereo not shown) [GC376], the IC50 in series [2] is 130 ± 20 nM. On to `COc1cccc2[nH]c(C(=O)NC(CC3CC3)C(=O)NC(CC3CCNC3=O)C(O)S(=O)(=O)O)cc12` (stereo not shown) [compound 4], for which the IC50 in series [2] is 60 ± 20 nM. In the case of `O=C(NC(CC1CC1)C(=O)NC(CC1CCNC1=O)C(O)S(=O)(=O)O)OCCc1cccc(Cl)c1` (stereo not shown) [compound 5], in series [2], the IC50 was 50 ± 20 nM.

On to “Dabcyl-KTSAVLQ↓SGFRKME(Edans)-NH2 [Dabcyl-KTSAVLQ↓S GFRKME(Edans)-NH2]”, for which, in series [1], the “K M” value is 4.6 × 10^−6 (lit. [23]) M and the k cat is 0.29 ± 0.03 (lit. [23]) s^−1.
